Reference: US4442044A, “Process for preparing monoesters and diesters of N-alkyl substituted amino methyl phosphonic acid” (priority 1983, dated 1984)

Legend:
Assay in all cases: post-emergent herbicidal activity, greenhouse
Assay type in all cases: in vivo
Morningglory = details: 2 WAT
Outline: (§1)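 Seeds or propagules sown in compacted top soil, grown 2–3 weeks in greenhouse, then sprayed with compound solution/suspension containing ~0.4% emulsifier at tabulated rates. Injury scored visually versus untreated controls at ~2 and 4 weeks after treatment, expressed as a herbicidal activity index.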

Wild Buckwheat = details: Table II, 2 WAT
Outline: as §1

Soybean = details: Table II, 2 WAT
Outline: as §1

Sugar Beet = details: Table II, 2 WAT
Outline: as §1

Yellow Nutsedge = details: Table I, 2 WAT
Outline: as §1

Wheat = details: Table II, 2 WAT
Outline: as §1

Velvetleaf = details: 2 WAT
Outline: as §1

Cocklebur = details: 2 WAT
Outline: as §1

Quackgrass = details: Table I, 2 WAT
Outline: as §1

Rice = details: Table II, 2 WAT
Outline: as §1

Panicum Spp = details: Table II, 2 WAT
Outline: as §1

Crabgrass = details: Table II, 2 WAT
Outline: as §1

Sorghum = details: Table II, 2 WAT
Outline: as §1

Downy Brome = details: 2 WAT
Outline: as §1

Lambsquarters = details: 2 WAT
Outline: as §1

Johnsongrass = details: Table I, 2 WAT
Outline: as §1

Barnyardgrass = details: 2 WAT
Outline: as §1

Smartweed = details: 2 WAT
Outline: as §1

Hemp Sesbania = details: Table II, 2 WAT
Outline: as §1

Canada Thistle = details: Table I, 2 WAT
Outline: as §1

Measured: post-emergent herbicidal activity index

CCOC(=O)CNCP(=O)(OCC(=O)OCC)OCC(=O)OCC [Example 13, glycine, N-[bis(ethoxycarbonylmethoxy)phosphinylmethyl]-, ethyl ester]
0 (0-24% control): Morningglory; Table I, 5.6 kg/h | Morningglory; Table II, 0.28 kg/h | Morningglory; Table II, 1.12 kg/h | Wild Buckwheat; 0.28 kg/h | Wild Buckwheat; 1.12 kg/h | Wild Buckwheat; 5.6 kg/h | Soybean; 0.28 kg/h | Soybean; 1.12 kg/h | Sugar Beet; 0.28 kg/h | Sugar Beet; 1.12 kg/h | Sugar Beet; 5.6 kg/h | Yellow Nutsedge; 5.6 kg/h | Yellow Nutsedge; 11.2 kg/h | Wheat; 0.28 kg/h | Wheat; 1.12 kg/h | Velvetleaf; Table I, 5.6 kg/h | Velvetleaf; Table I, 11.2 kg/h | Velvetleaf; Table II, 0.28 kg/h | Velvetleaf; Table II, 1.12 kg/h | Cocklebur; Table I, 5.6 kg/h | Cocklebur; Table I, 11.2 kg/h | Cocklebur; Table II, 0.28 kg/h | Cocklebur; Table II, 1.12 kg/h | Quackgrass; 11.2 kg/h | Rice; 0.28 kg/h | Rice; 1.12 kg/h | Rice; 5.6 kg/h | Panicum Spp; 0.28 kg/h | Panicum Spp; 1.12 kg/h | Panicum Spp; 5.6 kg/h | Crabgrass; 0.28 kg/h | Crabgrass; 1.12 kg/h | Sorghum; 0.28 kg/h | Sorghum; 1.12 kg/h | Downy Brome; Table I, 5.6 kg/h | Downy Brome; Table I, 11.2 kg/h | Downy Brome; Table II, 0.28 kg/h | Downy Brome; Table II, 1.12 kg/h | Downy Brome; Table II, 5.6 kg/h | Lambsquarters; Table I, 11.2 kg/h | Lambsquarters; Table II, 1.12 kg/h | Johnsongrass; 5.6 kg/h | Johnsongrass; 11.2 kg/h | Barnyardgrass; Table I, 5.6 kg/h | Barnyardgrass; Table I, 11.2 kg/h | Barnyardgrass; Table II, 0.28 kg/h | Barnyardgrass; Table II, 1.12 kg/h | Smartweed; Table I, 5.6 kg/h | Smartweed; Table I, 11.2 kg/h | Smartweed; Table II, 0.28 kg/h | Smartweed; Table II, 1.12 kg/h | Hemp Sesbania; 0.28 kg/h | Canada Thistle; 5.6 kg/h | Canada Thistle; 11.2 kg/h
1 (25-49% control): Morningglory; Table I, 11.2 kg/h | Morningglory; Table II, 5.6 kg/h | Soybean; 5.6 kg/h | Velvetleaf; Table II, 5.6 kg/h | Cocklebur; Table II, 5.6 kg/h | Quackgrass; 5.6 kg/h | Sorghum; 5.6 kg/h | Barnyardgrass; Table II, 5.6 kg/h | Smartweed; Table II, 5.6 kg/h | Hemp Sesbania; 1.12 kg/h
2 (50-74% control): Wheat; 5.6 kg/h
3 (75-99% control): Crabgrass; 5.6 kg/h
